Laboratory results from patent US6667387B1, “HCV core peptides” (priority 1992, dated 2003).
Ends that are not written are not given here.

How the values were obtained:
[1] = tested on: antibodies in sera from HCV-seropositive donors; experiment: ELISA with HCV antibody-positive sera (biotinylated peptides on streptavidin- or avidin-coated plates, unbiotinylated peptides coated directly); assay type: binding, human
In short: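 Read-out is OD at 450 nm after HRP goat anti-human Ig and TMB development, following 1 h at 37° C. with seropositive or negative sera diluted 1:100 (or 20-fold). Antigen was either unbiotinylated peptide adsorbed on plastic (pH 9.6 carbonate, 2–5 or 3 μg/ml) or biotinylated peptide at 1 μg/ml captured on streptavidin-coated wells, with casein blocking.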

[2] = ELISA with seronegative / negative control sera (specificity); assay type: binding, human
In short: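 Specificity readout is OD at 450 nm (HRP goat anti-human Ig, TMB/H2O2, sulfuric acid stop), with ≥0.250 counted positive. Seronegative donor sera (typically 1:100, 1 h, 37° C) were applied to casein-blocked wells coated with peptide directly or via streptavidin capture of biotinylated peptide.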

## PQRKTKRNTNRRPQDVKFPG
[1]; Table 4C, serum 8241, 20-fold dilution
  optical density (450 nm): 0.444
[1]; Table 4C, serum 8242, 20-fold dilution
  optical density (450 nm): 1.682
[1]; Table 4C, serum 8243, 20-fold dilution
  optical density (450 nm): 2.181
[1]; Table 4C, serum 8247, 20-fold dilution
  optical density (450 nm): 1.518
[1]; Table 4C, serum 8250, 20-fold dilution
  optical density (450 nm): 0.110
[1]; Table 4C, serum 8271, 20-fold dilution
  optical density (450 nm): 0.912
[1]; Table 4C, serum 8273, 20-fold dilution
  optical density (450 nm): 2.468
[1]; Table 4C, serum 8274, 20-fold dilution
  optical density (450 nm): 2.700
[1]; Table 4C, serum 8275, 20-fold dilution
  optical density (450 nm): 1.489
[1]; Table 4C, serum 8276, 20-fold dilution
  optical density (450 nm): 2.133
[1]; Table 4C, serum 8277, 20-fold dilution
  optical density (450 nm): 1.771
[1]; Table 4C, serum 8278, 20-fold dilution
  optical density (450 nm): 1.907
[1]; Table 5, sample 8242 (positive), peptide concentration 0.01 micrograms per milliliter, listed as Unbiotinylated HCV peptide II
  optical density (450 nm): 0.051
[1]; Table 5, sample 8242 (positive), peptide concentration 0.03 micrograms per milliliter, listed as Unbiotinylated HCV peptide II
  optical density (450 nm): 0.048
[1]; Table 5, sample 8242 (positive), peptide concentration 0.1 micrograms per milliliter, listed as Unbiotinylated HCV peptide II
  optical density (450 nm): 0.058
[1]; Table 5, sample 8242 (positive), peptide concentration 0.3 micrograms per milliliter, listed as Unbiotinylated HCV peptide II
  optical density (450 nm): 0.234
[1]; Table 5, sample 8242 (positive), peptide concentration 1.0 micrograms per milliliter, listed as Unbiotinylated HCV peptide II
  optical density (450 nm): 0.408
[1]; Table 5, sample 8242 (positive), peptide concentration 3.0 micrograms per milliliter, listed as Unbiotinylated HCV peptide II
  optical density (450 nm): 0.539
[1]; Table 5, sample 8243 (positive), peptide concentration 0.01 micrograms per milliliter, listed as Unbiotinylated HCV peptide II
  optical density (450 nm): 0.056
[1]; Table 5, sample 8243 (positive), peptide concentration 0.03 micrograms per milliliter, listed as Unbiotinylated HCV peptide II
  optical density (450 nm): 0.057
[1]; Table 5, sample 8243 (positive), peptide concentration 0.1 micrograms per milliliter, listed as Unbiotinylated HCV peptide II
  optical density (450 nm): 0.181
[1]; Table 5, sample 8243 (positive), peptide concentration 0.3 micrograms per milliliter, listed as Unbiotinylated HCV peptide II
  optical density (450 nm): 0.831
[1]; Table 5, sample 8243 (positive), peptide concentration 1.0 micrograms per milliliter, listed as Unbiotinylated HCV peptide II
  optical density (450 nm): 1.221
[1]; Table 5, sample 8243 (positive), peptide concentration 3.0 micrograms per milliliter, listed as Unbiotinylated HCV peptide II
  optical density (450 nm): 1.341
[1]; Table 5, sample 8318 (positive), peptide concentration 0.01 micrograms per milliliter, listed as Unbiotinylated HCV peptide II
  optical density (450 nm): 0.048
[1]; Table 5, sample 8318 (positive), peptide concentration 0.03 micrograms per milliliter, listed as Unbiotinylated HCV peptide II
  optical density (450 nm): 0.095
[1]; Table 5, sample 8318 (positive), peptide concentration 0.1 micrograms per milliliter, listed as Unbiotinylated HCV peptide II
  optical density (450 nm): 0.181
[1]; Table 5, sample 8318 (positive), peptide concentration 0.3 micrograms per milliliter, listed as Unbiotinylated HCV peptide II
  optical density (450 nm): 0.347
[1]; Table 5, sample 8318 (positive), peptide concentration 1.0 micrograms per milliliter, listed as Unbiotinylated HCV peptide II
  optical density (450 nm): 0.626
[1]; Table 5, sample 8318 (positive), peptide concentration 3.0 micrograms per milliliter, listed as Unbiotinylated HCV peptide II
  optical density (450 nm): 0.791
[1]; Table 5, sample 8320 (positive), peptide concentration 0.01 micrograms per milliliter, listed as Unbiotinylated HCV peptide II
  optical density (450 nm): 0.479
[1]; Table 5, sample 8320 (positive), peptide concentration 0.03 micrograms per milliliter, listed as Unbiotinylated HCV peptide II
  optical density (450 nm): 1.272
[1]; Table 5, sample 8320 (positive), peptide concentration 0.1 micrograms per milliliter, listed as Unbiotinylated HCV peptide II
  optical density (450 nm): 1.828
[1]; Table 5, sample 8320 (positive), peptide concentration 0.3 micrograms per milliliter, listed as Unbiotinylated HCV peptide II
  optical density (450 nm): 2.004
[1]; Table 5, sample 8320 (positive), peptide concentration 1.0 micrograms per milliliter, listed as Unbiotinylated HCV peptide II
  optical density (450 nm): 2.163
[1]; Table 5, sample 8320 (positive), peptide concentration 3.0 micrograms per milliliter, listed as Unbiotinylated HCV peptide II
  optical density (450 nm): 2.278
[2]; Table 4C, negative serum
  optical density (450 nm): 0.047
[2]; Table 5, sample 1747 (negative), peptide concentration 0.01 micrograms per milliliter, listed as Unbiotinylated HCV peptide II
  optical density (450 nm): 0.041
[2]; Table 5, sample 1747 (negative), peptide concentration 0.03 micrograms per milliliter, listed as Unbiotinylated HCV peptide II
  optical density (450 nm): 0.043
[2]; Table 5, sample 1747 (negative), peptide concentration 0.1 micrograms per milliliter, listed as Unbiotinylated HCV peptide II
  optical density (450 nm): 0.044
[2]; Table 5, sample 1747 (negative), peptide concentration 0.3 micrograms per milliliter, listed as Unbiotinylated HCV peptide II
  optical density (450 nm): 0.041
[2]; Table 5, sample 1747 (negative), peptide concentration 1.0 micrograms per milliliter, listed as Unbiotinylated HCV peptide II
  optical density (450 nm): 0.046
[2]; Table 5, sample 1747 (negative), peptide concentration 3.0 micrograms per milliliter, listed as Unbiotinylated HCV peptide II
  optical density (450 nm): 0.049
[2]; Table 5, sample 1781 (negative), peptide concentration 0.01 micrograms per milliliter, listed as Unbiotinylated HCV peptide II
  optical density (450 nm): 0.046
[2]; Table 5, sample 1781 (negative), peptide concentration 0.03 micrograms per milliliter, listed as Unbiotinylated HCV peptide II
  optical density (450 nm): 0.053
[2]; Table 5, sample 1781 (negative), peptide concentration 0.1 micrograms per milliliter, listed as Unbiotinylated HCV peptide II
  optical density (450 nm): 0.046
[2]; Table 5, sample 1781 (negative), peptide concentration 0.3 micrograms per milliliter, listed as Unbiotinylated HCV peptide II
  optical density (450 nm): 0.045
[2]; Table 5, sample 1781 (negative), peptide concentration 1.0 micrograms per milliliter, listed as Unbiotinylated HCV peptide II
  optical density (450 nm): 0.053
[2]; Table 5, sample 1781 (negative), peptide concentration 3.0 micrograms per milliliter, listed as Unbiotinylated HCV peptide II
  optical density (450 nm): 0.053
